According to ChEMBL document CHEMBL3864168, “Imidazopyridazine Inhibitors of PI3Kβ” (ACS Med Chem Lett, 2016):
pIC50, pKd: −log10 of the molar value.

Legend:
[1] = target: Phosphatidylinositol 4,5-bisphosphate 3-kinase catalytic subunit alpha isoform (Homo sapiens, UniProt P42336); experiment: Binding affinity to human PI3Kalpha (108 to 1068 residues) expressed in mammalian expression system by KINOMEscan assay
[2] = target: T1, Phosphatidylinositol 4,5-bisphosphate 3-kinase catalytic subunit beta isoform (Homo sapiens, UniProt P42338); experiment: Inhibition of PI3Kbeta in human PC3 cells assessed as suppression of AKT phosphorylation at Ser473 after 60 mins by ELISA; assay type: cell-based, PC-3
T1 sequence (P42338 whole entry, the tested form may be a part, canonical isoform): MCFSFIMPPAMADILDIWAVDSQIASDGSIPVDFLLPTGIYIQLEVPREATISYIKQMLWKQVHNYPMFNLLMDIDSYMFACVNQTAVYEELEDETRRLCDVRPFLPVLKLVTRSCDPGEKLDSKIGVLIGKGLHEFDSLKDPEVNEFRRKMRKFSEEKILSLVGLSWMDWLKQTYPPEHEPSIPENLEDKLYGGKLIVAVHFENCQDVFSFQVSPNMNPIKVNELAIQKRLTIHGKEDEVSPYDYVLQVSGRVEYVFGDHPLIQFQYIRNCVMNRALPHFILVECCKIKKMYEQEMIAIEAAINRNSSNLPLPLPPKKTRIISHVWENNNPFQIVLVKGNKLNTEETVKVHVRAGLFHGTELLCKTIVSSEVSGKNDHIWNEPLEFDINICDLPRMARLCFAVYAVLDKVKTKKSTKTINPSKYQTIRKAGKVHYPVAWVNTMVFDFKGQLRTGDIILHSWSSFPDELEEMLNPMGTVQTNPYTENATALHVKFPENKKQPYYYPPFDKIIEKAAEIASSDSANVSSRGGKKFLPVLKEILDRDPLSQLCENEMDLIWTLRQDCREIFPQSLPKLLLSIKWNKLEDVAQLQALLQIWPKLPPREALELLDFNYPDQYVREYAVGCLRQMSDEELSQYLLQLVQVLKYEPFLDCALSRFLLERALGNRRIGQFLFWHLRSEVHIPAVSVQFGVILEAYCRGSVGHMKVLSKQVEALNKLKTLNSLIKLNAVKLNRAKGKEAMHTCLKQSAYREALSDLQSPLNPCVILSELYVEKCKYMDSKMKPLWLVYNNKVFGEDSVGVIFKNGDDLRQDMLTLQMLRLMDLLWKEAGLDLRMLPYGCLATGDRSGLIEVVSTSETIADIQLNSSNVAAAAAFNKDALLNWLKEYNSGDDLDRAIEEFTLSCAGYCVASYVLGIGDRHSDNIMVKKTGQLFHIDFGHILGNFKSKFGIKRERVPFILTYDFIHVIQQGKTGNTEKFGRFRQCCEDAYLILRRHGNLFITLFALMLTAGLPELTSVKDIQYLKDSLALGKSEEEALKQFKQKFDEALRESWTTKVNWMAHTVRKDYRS

[3] = target: Phosphatidylinositol 4,5-bisphosphate 3-kinase catalytic subunit gamma isoform (Homo sapiens, UniProt P48736); experiment: Binding affinity to human PI3Kgamma (144 to 1102 residues) expressed in mammalian expression system by KINOMEscan assay
Chain of Phosphatidylinositol 4,5-bisphosphate 3-kinase catalytic subunit gamma isoform (P48736 whole entry, the tested form may be a part, canonical isoform): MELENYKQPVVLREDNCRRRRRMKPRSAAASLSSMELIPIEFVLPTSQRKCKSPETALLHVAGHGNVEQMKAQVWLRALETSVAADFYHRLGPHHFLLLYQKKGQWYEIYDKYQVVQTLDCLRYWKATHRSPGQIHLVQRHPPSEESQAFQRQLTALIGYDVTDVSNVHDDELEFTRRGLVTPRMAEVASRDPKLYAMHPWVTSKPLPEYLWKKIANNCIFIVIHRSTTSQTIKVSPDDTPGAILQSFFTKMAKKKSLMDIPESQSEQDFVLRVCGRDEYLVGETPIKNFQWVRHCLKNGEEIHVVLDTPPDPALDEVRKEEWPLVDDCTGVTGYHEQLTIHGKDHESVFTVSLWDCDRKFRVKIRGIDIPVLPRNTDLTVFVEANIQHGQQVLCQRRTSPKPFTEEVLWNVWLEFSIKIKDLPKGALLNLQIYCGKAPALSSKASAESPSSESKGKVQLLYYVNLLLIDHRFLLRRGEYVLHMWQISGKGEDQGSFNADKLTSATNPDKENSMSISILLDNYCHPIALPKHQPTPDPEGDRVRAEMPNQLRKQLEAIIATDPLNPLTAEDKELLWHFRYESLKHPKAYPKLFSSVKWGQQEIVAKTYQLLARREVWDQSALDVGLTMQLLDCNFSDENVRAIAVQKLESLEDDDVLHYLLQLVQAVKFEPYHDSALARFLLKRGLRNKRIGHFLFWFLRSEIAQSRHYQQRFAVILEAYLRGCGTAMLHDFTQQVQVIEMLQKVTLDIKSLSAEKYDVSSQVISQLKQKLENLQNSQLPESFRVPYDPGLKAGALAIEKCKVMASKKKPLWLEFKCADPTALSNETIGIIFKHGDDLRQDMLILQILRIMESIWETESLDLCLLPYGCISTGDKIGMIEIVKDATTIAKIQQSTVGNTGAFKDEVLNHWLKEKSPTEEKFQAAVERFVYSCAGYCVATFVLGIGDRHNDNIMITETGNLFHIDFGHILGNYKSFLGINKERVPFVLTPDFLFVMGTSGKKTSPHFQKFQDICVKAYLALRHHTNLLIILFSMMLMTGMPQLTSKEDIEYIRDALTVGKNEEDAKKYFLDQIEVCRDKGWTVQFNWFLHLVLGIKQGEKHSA

[4] = target: T1, Phosphatidylinositol 4,5-bisphosphate 3-kinase catalytic subunit beta isoform; experiment: Inhibition of PI3Kbeta in human PC3 cells assessed as suppression of AKT phosphorylation at Thr308 after 60 mins by ELISA; assay type: cell-based, PC-3
[5] = target: Serine/threonine-protein kinase mTOR (Homo sapiens, UniProt P42345); experiment: Binding affinity to human MTOR (1382 to 2549 residues) expressed in mammalian expression system by KINOMEscan assay
[6] = target: T1, Phosphatidylinositol 4,5-bisphosphate 3-kinase catalytic subunit beta isoform; experiment: Binding affinity to human PI3Kbeta (118 to 1070 residues) expressed in mammalian expression system by KINOMEscan assay
[7] = target: T2, Phosphatidylinositol 4,5-bisphosphate 3-kinase catalytic subunit delta isoform (Homo sapiens, UniProt O00329); experiment: Binding affinity to human PI3Kdelta (108 to 1044 residues) expressed in mammalian expression system by KINOMEscan assay
T2 sequence (O00329 whole entry): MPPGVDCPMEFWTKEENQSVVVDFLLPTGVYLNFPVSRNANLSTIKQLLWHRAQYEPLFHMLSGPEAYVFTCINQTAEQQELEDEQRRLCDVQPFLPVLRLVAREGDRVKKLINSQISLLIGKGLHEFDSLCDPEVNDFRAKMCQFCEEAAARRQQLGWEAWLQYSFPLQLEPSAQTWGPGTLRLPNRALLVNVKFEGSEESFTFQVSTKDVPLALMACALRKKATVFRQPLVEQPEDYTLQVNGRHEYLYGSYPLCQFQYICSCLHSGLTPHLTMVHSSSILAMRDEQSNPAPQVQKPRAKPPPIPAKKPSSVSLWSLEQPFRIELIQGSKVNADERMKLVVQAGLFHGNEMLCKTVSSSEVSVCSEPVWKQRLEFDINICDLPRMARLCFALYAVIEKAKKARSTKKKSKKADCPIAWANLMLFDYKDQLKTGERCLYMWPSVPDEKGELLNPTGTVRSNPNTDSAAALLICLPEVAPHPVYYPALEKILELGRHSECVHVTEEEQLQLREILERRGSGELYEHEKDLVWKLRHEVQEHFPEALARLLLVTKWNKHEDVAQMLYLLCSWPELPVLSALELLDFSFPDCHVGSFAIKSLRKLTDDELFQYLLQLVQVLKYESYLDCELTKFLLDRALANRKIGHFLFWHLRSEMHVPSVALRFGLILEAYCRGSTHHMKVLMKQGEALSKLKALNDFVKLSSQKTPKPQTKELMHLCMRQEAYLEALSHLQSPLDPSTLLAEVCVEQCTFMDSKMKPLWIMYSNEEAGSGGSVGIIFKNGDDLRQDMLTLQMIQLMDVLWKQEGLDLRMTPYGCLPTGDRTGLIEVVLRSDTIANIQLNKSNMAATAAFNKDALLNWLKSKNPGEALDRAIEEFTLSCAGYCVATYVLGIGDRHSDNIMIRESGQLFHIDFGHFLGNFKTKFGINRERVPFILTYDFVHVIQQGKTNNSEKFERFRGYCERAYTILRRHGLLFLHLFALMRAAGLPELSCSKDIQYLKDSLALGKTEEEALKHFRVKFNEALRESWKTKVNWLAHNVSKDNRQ

Chain of Phosphatidylinositol 4,5-bisphosphate 3-kinase catalytic subunit alpha isoform (P42336 whole entry, the tested form may be a part, canonical isoform): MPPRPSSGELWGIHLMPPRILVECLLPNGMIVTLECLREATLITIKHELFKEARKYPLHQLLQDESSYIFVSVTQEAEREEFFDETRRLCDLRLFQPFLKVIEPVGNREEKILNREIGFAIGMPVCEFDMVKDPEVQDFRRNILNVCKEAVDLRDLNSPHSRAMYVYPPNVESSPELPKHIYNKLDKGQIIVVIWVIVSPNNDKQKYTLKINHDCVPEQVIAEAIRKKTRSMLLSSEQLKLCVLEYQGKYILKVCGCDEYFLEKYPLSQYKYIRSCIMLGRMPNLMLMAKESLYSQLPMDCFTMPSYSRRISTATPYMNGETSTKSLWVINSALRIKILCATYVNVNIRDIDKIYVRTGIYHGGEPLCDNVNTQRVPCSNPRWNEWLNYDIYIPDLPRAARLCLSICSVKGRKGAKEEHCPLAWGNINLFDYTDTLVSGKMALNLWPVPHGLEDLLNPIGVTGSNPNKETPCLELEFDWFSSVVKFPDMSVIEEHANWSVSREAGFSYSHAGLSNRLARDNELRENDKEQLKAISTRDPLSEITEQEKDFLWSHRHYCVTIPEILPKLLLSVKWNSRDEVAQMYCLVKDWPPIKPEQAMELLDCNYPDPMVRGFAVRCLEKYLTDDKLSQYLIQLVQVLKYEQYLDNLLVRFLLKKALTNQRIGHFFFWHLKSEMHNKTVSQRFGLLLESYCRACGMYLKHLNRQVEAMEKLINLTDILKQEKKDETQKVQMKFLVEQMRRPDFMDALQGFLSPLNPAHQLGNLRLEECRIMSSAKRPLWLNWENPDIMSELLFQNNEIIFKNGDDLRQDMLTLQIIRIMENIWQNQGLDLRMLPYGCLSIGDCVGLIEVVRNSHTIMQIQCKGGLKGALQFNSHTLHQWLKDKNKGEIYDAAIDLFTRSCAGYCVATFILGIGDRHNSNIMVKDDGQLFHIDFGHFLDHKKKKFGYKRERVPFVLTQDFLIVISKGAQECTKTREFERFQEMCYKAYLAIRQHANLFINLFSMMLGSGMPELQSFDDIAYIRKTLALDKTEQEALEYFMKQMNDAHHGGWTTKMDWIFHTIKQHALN

Structure (SMILES)	pKd [1]	pIC50 [2]	pKd [3]	pIC50 [4]	pKd [5]	pKd [6]	pKd [7]
Cc1c(Cc2c(CO)nc3c(N)cc(N4CCOCC4)nn23)cccc1C(F)(F)F [listing 1 of 2 here]	< 4.52	7.34	< 5.00	7.42	–	–	–
Cc1c(Cc2c(CN(C)CCS(C)(=O)=O)nc3c(N)cc(N4CCOCC4)nn23)cccc1C(F)(F)F	–	7.47	< 4.52	7.39	–	–	–
CC(=O)NCc1nc2c(-c3cnc[nH]3)cc(N3CCOCC3)nn2c1Cc1cccc(C(F)(F)F)c1C	< 4.52	7.48	< 4.52	7.96	< 4.52	8.70	7.23
Cc1c(Cc2c(CNCCS(C)(=O)=O)nc3c(N)cc(N4CCOCC4)nn23)cccc1C(F)(F)F	–	6.86	< 4.52	6.73	–	–	–
Cc1nc2c(C(N)=O)cc(N3CCOCC3)nn2c1Cc1cccc(C(F)(F)F)c1C	< 4.52	6.30	< 4.52	< 6.29	< 4.52	–	–
Cc1nc2c(-c3cnc[nH]3)cc(N3CCOCC3)nn2c1Nc1cccc(C(F)(F)F)c1C	6.04	7.92	5.64	8.10	5.33	8.59	7.31
Cc1nc2c(N)cc(N3CCOCC3)nn2c1Nc1cccc(C(F)(F)F)c1CN1CC(O)C1	–	7.36	4.71	7.48	< 4.52	–	7.14
Cc1nc2c(N)cc(N3CCOCC3)nn2c1Nc1cccc(C(F)(F)F)c1CN1CCN(C)CC1	–	7.68	–	7.77	–	–	–
Cc1c(Cc2c(CO)nc3c(N)cc(N4CCOCC4)nn23)cccc1C(F)(F)F [listing 2 of 2 here]	–	7.28	–	7.39	–	–	–
Cc1nc2c(C(=O)O)cc(N3CCOCC3)nn2c1Cc1cccc(C(F)(F)F)c1C	–	6.29	–	6.50	–	–	–
Cc1c(Cc2c(CO)nc3c(C(=O)O)cc(N4CCOCC4)nn23)cccc1C(F)(F)F	–	< 6.29	< 4.82	< 6.29	–	–	–
Cc1nc2c(N)cc(N3CCOCC3)nn2c1Cc1cccc(C(F)(F)F)c1C	5.29	7.92	4.94	7.77	4.69	8.22	6.77
Cc1nc2c(-c3cnc[nH]3)cc(N3CCOCC3)nn2c1Nc1cccc(C(F)(F)F)c1CN1CC(O)C1	–	6.76	–	7.77	–	–	–
Cc1nc2c(-c3cnc[nH]3)cc(N3CCOCC3)nn2c1Cc1cccc(C(F)(F)F)c1C	–	7.23	–	7.32	–	–	–
Cc1c(Nc2c(CO)nc3c(N)cc(N4CCOC(CO)C4)nn23)cccc1C(F)(F)F (stereo in doubt; 65)	5.18	7.10	6.16	7.37	6.45	8.89	6.86
Cc1c(Nc2c(CO)nc3c(N)cc(N4CCOC(CO)C4)nn23)cccc1C(F)(F)F (stereo in doubt; 66)	< 4.52	< 6.29	4.87	6.29	5.86	6.86	4.96
